Experimental data: US20230048132A1, “CYCLIN-DEPENDENT KINASE INHIBITORS” (SPV THERAPEUTICS INC., priority 2018, published 2023)

Columns and labels:
CDK2-CYCLINA = biological target: T1, CDK2-CYCLINA (Homo sapiens, UniProt P24941); assay: CDK inhibition assay (microfluidic LabChip, IC50 format); type: biochemical; settings: Table 4a; read-out: CDK2 CyclinA IC50
T1 construct: purchased Millipore

CDK6-CYCLIND3 = biological target: T2, CDK6-CYCLIND3 (Homo sapiens, UniProt Q00534); assay: as above; type: biochemical; settings: Table 4a; read-out: CDK6 CyclinD3 IC50
T2 construct: purchased Carna
T2 sequence (Q00534 whole entry): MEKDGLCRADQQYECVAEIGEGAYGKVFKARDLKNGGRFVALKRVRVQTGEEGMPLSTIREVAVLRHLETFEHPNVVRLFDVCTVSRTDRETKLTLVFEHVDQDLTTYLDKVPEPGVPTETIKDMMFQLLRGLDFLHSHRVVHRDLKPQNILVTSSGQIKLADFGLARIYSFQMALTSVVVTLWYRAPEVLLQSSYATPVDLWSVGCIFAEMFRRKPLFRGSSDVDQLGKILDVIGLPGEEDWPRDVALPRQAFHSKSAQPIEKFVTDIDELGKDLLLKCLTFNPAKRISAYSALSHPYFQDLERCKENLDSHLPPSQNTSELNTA
T2 sequence (P30281 whole entry partner): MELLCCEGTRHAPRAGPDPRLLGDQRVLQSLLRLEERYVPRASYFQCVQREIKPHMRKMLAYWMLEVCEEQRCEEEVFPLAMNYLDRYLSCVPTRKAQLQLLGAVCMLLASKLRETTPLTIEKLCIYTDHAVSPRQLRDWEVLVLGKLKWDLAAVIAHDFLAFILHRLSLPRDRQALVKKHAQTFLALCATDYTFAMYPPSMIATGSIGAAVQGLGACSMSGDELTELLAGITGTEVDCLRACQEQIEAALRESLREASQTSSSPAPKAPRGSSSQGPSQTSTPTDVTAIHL

CDK7 CyclinH = CDK7 CyclinH (Homo sapiens, UniProt P50613); assay: as above; type: biochemical; settings: Table 4a
Chain of CDK7 CyclinH (P50613 whole entry): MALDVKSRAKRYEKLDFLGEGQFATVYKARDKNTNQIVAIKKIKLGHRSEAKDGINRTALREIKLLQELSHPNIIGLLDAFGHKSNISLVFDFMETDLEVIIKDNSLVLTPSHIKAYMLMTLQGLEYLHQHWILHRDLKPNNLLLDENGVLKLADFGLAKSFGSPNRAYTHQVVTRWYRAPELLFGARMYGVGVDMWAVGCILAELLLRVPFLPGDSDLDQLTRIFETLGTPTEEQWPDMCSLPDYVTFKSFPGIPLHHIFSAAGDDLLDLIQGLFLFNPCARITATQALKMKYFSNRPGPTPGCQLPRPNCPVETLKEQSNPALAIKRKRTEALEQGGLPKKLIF
Chain of CDK7 CyclinH (P51946 whole entry partner): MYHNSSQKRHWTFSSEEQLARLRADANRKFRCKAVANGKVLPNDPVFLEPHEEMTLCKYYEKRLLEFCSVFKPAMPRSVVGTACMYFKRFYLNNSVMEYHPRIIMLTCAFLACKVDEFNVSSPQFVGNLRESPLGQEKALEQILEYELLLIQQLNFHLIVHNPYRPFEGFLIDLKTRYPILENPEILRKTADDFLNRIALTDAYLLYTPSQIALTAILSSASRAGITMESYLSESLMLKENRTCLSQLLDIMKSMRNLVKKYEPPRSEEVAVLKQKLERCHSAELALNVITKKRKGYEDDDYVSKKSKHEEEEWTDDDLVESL
Chain of CDK7 CyclinH (P51948 whole entry partner): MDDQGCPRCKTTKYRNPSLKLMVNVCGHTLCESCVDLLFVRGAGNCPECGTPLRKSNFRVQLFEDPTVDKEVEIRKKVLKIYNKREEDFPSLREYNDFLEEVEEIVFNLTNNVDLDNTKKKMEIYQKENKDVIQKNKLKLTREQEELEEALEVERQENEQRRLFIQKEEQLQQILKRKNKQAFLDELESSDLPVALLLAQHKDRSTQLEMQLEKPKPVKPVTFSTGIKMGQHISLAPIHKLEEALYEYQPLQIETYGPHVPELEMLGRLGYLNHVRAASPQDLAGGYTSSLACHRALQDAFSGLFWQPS

CDK9-CYCLINT1 = biological target: T3, CDK9-CYCLINT1 (Homo sapiens, UniProt P50750); assay: as above; type: biochemical; settings: Table 4a; read-out: CDK9 CyclinT1 IC50
T3 construct: purchased Carna
T3 sequence (P50750 whole entry): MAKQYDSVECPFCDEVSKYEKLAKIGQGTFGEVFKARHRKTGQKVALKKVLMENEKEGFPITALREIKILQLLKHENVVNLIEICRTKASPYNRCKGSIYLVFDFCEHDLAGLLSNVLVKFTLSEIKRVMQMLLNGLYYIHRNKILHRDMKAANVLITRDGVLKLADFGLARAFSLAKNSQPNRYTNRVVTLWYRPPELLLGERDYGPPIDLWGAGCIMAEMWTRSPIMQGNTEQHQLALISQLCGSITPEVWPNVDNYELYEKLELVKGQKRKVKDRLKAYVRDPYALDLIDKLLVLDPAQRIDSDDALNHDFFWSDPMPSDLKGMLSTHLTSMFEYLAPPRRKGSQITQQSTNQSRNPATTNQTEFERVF
T3 sequence (O60563 whole entry partner): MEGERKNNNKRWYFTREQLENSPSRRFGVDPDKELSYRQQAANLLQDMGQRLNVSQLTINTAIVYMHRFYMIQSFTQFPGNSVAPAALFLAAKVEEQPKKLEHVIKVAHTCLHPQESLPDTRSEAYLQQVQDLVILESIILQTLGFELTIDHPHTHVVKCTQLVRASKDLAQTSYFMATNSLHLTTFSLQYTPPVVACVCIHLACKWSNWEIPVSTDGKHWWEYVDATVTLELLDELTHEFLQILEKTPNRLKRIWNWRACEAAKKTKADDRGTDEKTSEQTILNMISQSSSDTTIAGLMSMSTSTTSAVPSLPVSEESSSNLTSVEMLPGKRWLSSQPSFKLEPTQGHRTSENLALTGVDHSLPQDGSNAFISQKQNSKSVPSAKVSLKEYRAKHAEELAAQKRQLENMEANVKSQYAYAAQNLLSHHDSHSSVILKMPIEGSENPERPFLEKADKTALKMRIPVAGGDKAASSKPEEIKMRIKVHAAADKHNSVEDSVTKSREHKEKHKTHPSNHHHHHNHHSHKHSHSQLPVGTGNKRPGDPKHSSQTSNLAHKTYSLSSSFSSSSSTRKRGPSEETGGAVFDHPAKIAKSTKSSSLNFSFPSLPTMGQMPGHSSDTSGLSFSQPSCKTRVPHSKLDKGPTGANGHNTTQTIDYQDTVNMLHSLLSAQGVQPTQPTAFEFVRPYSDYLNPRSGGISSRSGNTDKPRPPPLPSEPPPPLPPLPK

CXF HCT-15 = assay: 2D cell proliferation assay (CellTiter-Blue); type: cell-based; settings: Homo sapiens, 72 h, three days of treatment, read-out: abs. IC50
Description: (§1) Viability of the cells was analyzed by using the CellTiter-Blue® Cell Viability Assay (Promega), and was performed according to manufacturer's instructions. Briefly, cells were harvested from exponential phase cultures (Chapter 6.6), counted and plated in 96-well flat-bottom microtiter plates at a cell density of 4,000-60,000 cells/well in a volume of 140 μl per well. After a 24 hours recovery period, 10 μL cell culture medium (six control wells/plate) or culture medium with test compound were added (Chapter 6.2). The compounds were applied at five concentrations in full-log increments up to 100 μM in duplicate. Cultures were incubated at 37° C. and 5% CO2 in a humidified atmosphere for another three days. After three days of treatment, 20 μl/well CellTiter-Blue® reagent was added. Following incubation with CellTiter-Blue® reagent for up to four hours, fluorescence (FU) was measured by using the Enspire Multimode Plate Reader (excitation λ=570 nm, emission λ=600 nm). For calculations, the mean values of duplicate/sextuplicate (untreated control) data were used.
(§2) An assay was considered fully evaluable if the following quality control criteria were fulfilled: • control/background ratio>3.0-Z′-factor calculated within the assay plate>0.5 [7]—coefficient of variation in the growth control wells <30%
(§3) Drug effects were expressed in terms of the percentage of the fluorescence signal, obtained by comparison of the mean signal in the treated wells with the mean signal of the untreated controls (expressed by the test-versus-control value, T/C-value [%]):
(§4) IC values are reported as relative IC50 values and absolute IC50 and IC70 values. […] The absolute IC70 value gives the concentration of the test compound that achieves T/C=30%. The relative IC50 value is the concentration of test compound that gives a response halfway between the top and bottom plateau of the sigmoidal concentration-response curve (inflection point of the curve). Calculation was done by 4parameter non-linear curve fit (Oncotest Data Warehouse Software).
(§5) If an IC50 or IC70 value could not be determined within the examined dose range (because a compound was either too active or lacked activity), the lowest or highest concentration studied was used for calculation of the geometric mean value.

GXA MKN45 = assay: 2D cell proliferation assay (CellTiter-Blue); type: cell-based; settings: Homo sapiens, MKN-45, 72 h, three days of treatment, read-out: abs. IC50
Description: as §1, §2, §3, §4, §5

LEXFCL MEC-1 = assay: 2D cell proliferation assay (CellTiter-Blue); type: cell-based; settings: Homo sapiens, MEC1, 72 h, three days of treatment, read-out: abs. IC50
Description: as §1, §2, §3, §4, §5

LEXFCM K-562 = assay: 2D cell proliferation assay (CellTiter-Blue); type: cell-based; settings: Homo sapiens, K562, 72 h, three days of treatment, read-out: abs. IC50
Description: as §1, §2, §3, §4, §5

LIXAH SNU-398 = assay: 2D cell proliferation assay (CellTiter-Blue); type: cell-based; settings: Homo sapiens, 72 h, three days of treatment, read-out: abs. IC50
Description: as §1, §2, §3, §4, §5

LIXFH Hep G2 = assay: 2D cell proliferation assay (CellTiter-Blue); type: cell-based; settings: Homo sapiens, HepG2, 72 h, three days of treatment, read-out: abs. IC50
Description: as §1, §2, §3, §4, §5

LXFL NCl-H460 = assay: 2D cell proliferation assay (CellTiter-Blue); type: cell-based; settings: 72 h, three days of treatment, read-out: abs. IC50
Description: as §1, §2, §3, §4, §5

LYXFNH U-937 = assay: 2D cell proliferation assay (CellTiter-Blue); type: cell-based; settings: Homo sapiens, 72 h, three days of treatment, read-out: abs. IC50
Description: as §1, §2, §3, §4, §5

MAXFHER SK-BR-3 = assay: 2D cell proliferation assay (CellTiter-Blue); type: cell-based; settings: Homo sapiens, 72 h, three days of treatment, read-out: abs. IC50
Description: as §1, §2, §3, §4, §5

MAXFLB MCF7 (ER+) = assay: 2D cell proliferation assay (CellTiter-Blue); type: cell-based; settings: Homo sapiens, 72 h, three days of treatment, read-out: abs. IC50
Description: as §1, §2, §3, §4, §5

MAXFTN MDA-MB-231 (ER−) = assay: 2D cell proliferation assay (CellTiter-Blue); type: cell-based; settings: Homo sapiens, 72 h, three days of treatment, read-out: abs. IC50
Description: as §1, §2, §3, §4, §5

MAXFTN MDA-MB-468 (ER−) = assay: 2D cell proliferation assay (CellTiter-Blue); type: cell-based; settings: Homo sapiens, 72 h, three days of treatment, read-out: abs. IC50
Description: as §1, §2, §3, §4, §5

MEXF A2058 = assay: 2D cell proliferation assay (CellTiter-Blue); type: cell-based; settings: Homo sapiens, 72 h, three days of treatment, read-out: abs. IC50
Description: as §1, §2, §3, §4, §5

MEXF WM-266-4 = assay: 2D cell proliferation assay (CellTiter-Blue); type: cell-based; settings: Homo sapiens, 72 h, three days of treatment, read-out: abs. IC50
Description: as §1, §2, §3, §4, §5

OVXF SK-OV-3 = assay: 2D cell proliferation assay (CellTiter-Blue); type: cell-based; settings: Homo sapiens, 72 h, three days of treatment, read-out: abs. IC50
Description: as §1, §2, §3, §4, §5

PAXF BxPC-3 = assay: 2D cell proliferation assay (CellTiter-Blue); type: cell-based; settings: Homo sapiens, 72 h, three days of treatment, read-out: abs. IC50
Description: as §1, §2, §3, §4, §5

PRXF DU-145 = assay: 2D cell proliferation assay (CellTiter-Blue); type: cell-based; settings: Homo sapiens, 72 h, three days of treatment, read-out: abs. IC50
Description: as §1, §2, §3, §4, §5

all cell lines tested = assay: 2D cell proliferation assay, geometric mean over the cell line panel; type: cell-based; settings: Table 5 upper part; geometric mean over the 47-line panel; read-out: Geomean abs. IC50 value
Description: as §1, §4, §5
The overall potency of a compound was determined by the geometric mean IC50/IC70 values of all individual IC50/IC70 values. In the heatmap representation of IC50 and IC70 values, the distribution of the IC50 or IC70 values obtained for a test compound in the individual cell lines is given in relation to the geometric mean IC50 or IC70 value, obtained over all PDX models tested. The individual IC values range from 1/32-fold geometric mean IC (corresponding to very potent compound activity or high tumor sensitivity) to 32-fold geometric mean IC (corresponding to lack of compound activity or tumor resistance). The heatmap presentation, therefore, represents an antiproliferative “fingerprint” profile of a test compound.

CDK4-CYCLIND1 = CDK4-CYCLIND1 (Homo sapiens, UniProt P11802); assay: CDK inhibition assay (microfluidic LabChip, IC50 format); settings: CDK4 CyclinD1 IC50, Table 4a; a second value in parentheses for some compounds
Chain of CDK4-CYCLIND1 (P11802 whole entry): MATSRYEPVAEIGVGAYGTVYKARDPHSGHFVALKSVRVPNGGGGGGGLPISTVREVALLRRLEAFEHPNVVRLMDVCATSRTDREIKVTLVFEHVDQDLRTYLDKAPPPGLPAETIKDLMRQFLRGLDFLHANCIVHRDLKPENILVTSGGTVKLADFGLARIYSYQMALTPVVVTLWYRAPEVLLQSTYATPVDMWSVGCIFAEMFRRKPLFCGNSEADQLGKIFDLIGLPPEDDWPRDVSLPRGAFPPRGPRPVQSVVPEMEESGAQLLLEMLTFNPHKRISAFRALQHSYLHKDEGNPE
Chain of CDK4-CYCLIND1 (P24385 whole entry partner): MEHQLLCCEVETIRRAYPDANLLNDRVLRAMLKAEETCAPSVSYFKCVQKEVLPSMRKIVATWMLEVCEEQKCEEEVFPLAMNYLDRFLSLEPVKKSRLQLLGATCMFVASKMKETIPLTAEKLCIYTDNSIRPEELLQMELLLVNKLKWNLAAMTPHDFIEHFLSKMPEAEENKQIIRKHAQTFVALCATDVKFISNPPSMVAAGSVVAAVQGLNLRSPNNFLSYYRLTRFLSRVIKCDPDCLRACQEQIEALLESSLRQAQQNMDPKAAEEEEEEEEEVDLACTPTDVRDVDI
Description: Inhibition assays were performed using microfluidic LabChip 300 Drug Discovery System from Caliper Life Sciences. […] The assay has a total volume of 10 μL consisting of 5 μL of enzyme and buffer and 5 μL of substrate and buffer. The test compounds were diluted in 100% dimethylsulfoxide (DMSO) using 3-fold dilution steps. […] Compounds were tested in a single well for each dilution and the final concentration of DMSO was maintained at 1%.
The assay buffer contained 100 mM HEPES, pH 7.5, 0.01% Triton X-100, 0.1% bovine serum albumin (BSA), 5 mM MgCl2; 1 mM dithiothreitol (DTT), 10 μM sodium orthovanadate, and 10 μM β-glycerophosphate.
The assay was conducted by adding 5 μL of enzyme, adenosine triphosphate (ATP) and buffer to an assay plate. A 100 nL aliquot of the diluted compounds were added to the plate. The assay was initiated by the addition of 5 μL of phosphoenolpyruvate substrate (PEP) in buffer. […] The reaction was terminated by the addition of EDTA. The plates were analyzed using a Caliper LabChip 3000.
Additional inhibition assays were performed as described above.
The assays were conducted as described above for the racemates.

Row | IC50 (CDK2-CYCLINA) [µM] | IC50 (CDK6-CYCLIND3) [µM] | IC50 (CDK7 CyclinH) [µM] | IC50 (CDK9-CYCLINT1) [µM] | IC50 (CXF HCT-15) [µM] | IC50 (GXA MKN45) [µM] | IC50 (LEXFCM K-562) [µM] | IC50 (LIXAH SNU-398) [µM] | IC50 (LXFL NCl-H460) [µM] | IC50 (LYXFNH U-937) [µM] | IC50 (MAXFHER SK-BR-3) [µM] | IC50 (MAXFLB MCF7 (ER+)) [µM] | IC50 (MAXFTN MDA-MB-231 (ER−)) [µM] | IC50 (MAXFTN MDA-MB-468 (ER−)) [µM] | IC50 (OVXF SK-OV-3) [µM] | IC50 (PAXF BxPC-3) [µM] | SMILES | IC50 (LEXFCL MEC-1) [µM] | IC50 (LIXFH Hep G2) [µM] | IC50 (MEXF A2058) [µM] | IC50 (MEXF WM-266-4) [µM] | other results
1 | 0.273 | 0.00812 | 1.12 | 0.0248 | 2.05 | 3.12 | 4.94 | 0.251 | 2.13 | ≤ 0.01 | 1.02 | 1.04 | 0.703 | 0.925 | 8.26 | 0.756 | O=C1NCC[C@@]12Cc1cnc(Nc3ccc(N4CCNCC4)cc3F)nc1N(C1CCCC1)C2=O [Example D146, (S)-8-cyclopentyl-2-((2-fluoro-4-(piperazin-1-yl)phenyl)amino)-5,8-dihydro-7H-spiro[pyrido[2,3-d]pyrimidine-6,3′-pyrrolidine]-2′,7-dione] | 0.142 | 0.341 | 1.53 | 6.22 | IC50 (PRXF DU-145): 0.544 µM; IC50 (all cell lines tested): 1.24 µM; IC50 (CDK4-CYCLIND1): 0.00419 µM
2 | 2.14 | 0.00234 | 13.5 | 0.163 | 22.1 | 47.8 | 84.4 | 6.84 | 35.3 | ≤ 0.01 | 13.8 | 29.8 | 4.86 | 72.9 | 59.9 | 2.87 | CC(C)N1CCN(c2ccc(Nc3ncc4c(n3)N(C3CCCC3)C(=O)[C@]3(CCNC3=O)C4)nc2)CC1 [Example D154, (S)-8-cyclopentyl-2-((5-(4-isopropylpiperazin-1-yl)pyridin-2-yl)amino)-5,8-dihydro-7H-spiro[pyrido[2,3-d]pyrimidine-6,3′-pyrrolidine]-2′,7-dione] | 9.7 | 8.14 | 14.5 | 81.3 | IC50 (PRXF DU-145): 30.6 µM; IC50 (all cell lines tested): 17 µM; IC50 (CDK4-CYCLIND1): 0.00205 µM
3 | 0.127 | 0.00188 | 1.13 | 0.00425 | 29.5 | 47.3 | 75.7 | 0.608 | 63.4 | ≤ 0.01 | 31.9 | 32 | 2.45 | 68.2 | 76.7 | 12.1 | CN(C)[C@H]1CCN(c2ccc(Nc3ncc4c(n3)N(C3CCCC3)C(=O)[C@]3(CCNC3=O)C4)nc2)C1 [Example D178, (S)-8-cyclopentyl-2-((5-((S)-3-(dimethylamino)pyrrolidin-1-yl)pyridin-2-yl)amino)-5,8-dihydro-7H-spiro[pyrido[2,3-d]pyrimidine-6,3′-pyrrolidine]-2′,7-dione] | 37 | 5.31 | 60.4 | 74.4 | IC50 (PRXF DU-145): 19.2 µM; IC50 (all cell lines tested): 16.5 µM; IC50 (CDK4-CYCLIND1): 0.00103 µM
4 | 0.0675 | 0.00215 | 0.321 | 0.00185 | 1.41 | 0.112 | 0.355 | 0.025 | 0.274 | ≤ 0.01 | 0.328 | 0.057 | 0.053 | 0.681 | 0.772 | 0.116 | CN(C)CCOc1ccc(Nc2ncc3c(n2)N(C2CCCC2)C(=O)[C@]2(CCNC2=O)C3)cc1 [Example D179, (S)-8-cyclopentyl-2-((4-(2-(dimethylamino)ethoxy)phenyl)amino)-5,8-dihydro-7H-spiro[pyrido[2,3-d]pyrimidine-6,3′-pyrrolidine]-2′,7-dione] | 0.447 | 0.037 | 0.174 | 0.272 | IC50 (PRXF DU-145): 0.047 µM; IC50 (all cell lines tested): 0.205 µM; IC50 (CDK4-CYCLIND1): 0.00127 µM
